Results: PubChem BioAssay (NCI)
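Growth conditions: 96-well plates. Treatment: test compound, 48 hours, 5 concentrations. Analysis: linear interpolation between bracketing concentrations; unreached endpoints set to highest concentration. TGI: concentration producing complete growth inhibition.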

Columns and labels:
Test in all cases: growth of human tumour cells (NCI), 48 h
HL-60(TB) leukemia = tested on: HL-60(TB) leukemia
SF-268 CNS = tested on: SF-268 CNS
RXF 393 renal = tested on: RXF 393 renal
DLD-1 colon = tested on: DLD-1 colon
EKVX NSCLC = tested on: EKVX NSCLC
HT29 colon = tested on: HT29 colon
786-0 renal = tested on: 786-0 renal
A498 renal = tested on: A498 renal
CCRF-CEM leukemia = tested on: CCRF-CEM leukemia
UACC-62 melanoma = tested on: UACC-62 melanoma
COLO 205 colon = tested on: COLO 205 colon
IGROV1 ovarian = tested on: IGROV1 ovarian
SNB-19 CNS = tested on: SNB-19 CNS
MDA-MB-231 breast = tested on: MDA-MB-231 breast
NCI/ADR-RES ovarian = tested on: NCI/ADR-RES ovarian
PC-3 prostate = tested on: PC-3 prostate
HS 578T breast = tested on: HS 578T breast
DU-145 prostate = tested on: DU-145 prostate
MCF7 breast = tested on: MCF7 breast
T-47D breast = tested on: T-47D breast

SMILES	TGI (HL-60(TB) leukemia)	TGI (SF-268 CNS)	TGI (RXF 393 renal)	TGI (DLD-1 colon)	TGI (EKVX NSCLC)	TGI (HT29 colon)	TGI (786-0 renal)	TGI (A498 renal)	TGI (CCRF-CEM leukemia)	TGI (UACC-62 melanoma)	TGI (COLO 205 colon)	TGI (IGROV1 ovarian)	TGI (SNB-19 CNS)	TGI (MDA-MB-231 breast)	TGI (NCI/ADR-RES ovarian)	TGI (PC-3 prostate)	TGI (HS 578T breast)	TGI (DU-145 prostate)	TGI (MCF7 breast)	TGI (T-47D breast)
O=C1CCCCC1C1(O)C(=O)Nc2cc(F)ccc21 (configuration not stated)	> 100 µM	> 100 µM	> 100 µM	> 100 µM	> 100 µM	> 100 µM	> 100 µM	> 100 µM	> 100 µM	> 100 µM	> 100 µM	> 100 µM	> 100 µM							
CC(C)CC(=O)N1CCN(C(=O)CC(C)C)c2ccccc21	> 100 µM	> 100 µM	> 100 µM	> 100 µM	> 100 µM	> 100 µM	> 100 µM	> 100 µM	> 100 µM		> 100 µM	> 100 µM	> 100 µM							
COc1ccc(C2Cc3cc(OC)c(OC)c(OC)c3C2=O)cc1 (configuration not stated)		> 100 µM		> 100 µM	> 100 µM	> 100 µM	> 100 µM	> 100 µM	> 100 µM	> 100 µM	> 100 µM	> 100 µM	> 100 µM							
COc1ccc(NC(=O)CSc2nnc(Cc3ccccc3)o2)cc1		> 100 µM	> 100 µM	> 100 µM		> 100 µM	> 100 µM	> 100 µM	> 100 µM	> 100 µM	> 100 µM	> 100 µM	> 100 µM							
COC(=O)C(C(=O)C(=O)Nc1c(Cl)cc([N+](=O)[O-])cc1Cl)c1nc2cc(C)c(C)cc2[nH]c1=O (configuration not stated)	> 100 µM	> 100 µM	> 100 µM	> 100 µM	> 100 µM	> 100 µM	> 100 µM	> 100 µM	> 100 µM	> 100 µM	> 100 µM	> 100 µM	> 100 µM							
CNC(=S)NNC(=O)c1c(C)nc2sccn12	> 100 µM	> 100 µM	> 100 µM	> 100 µM	> 100 µM	> 100 µM	> 100 µM		> 100 µM	> 100 µM	> 100 µM	> 100 µM	> 100 µM							
O=S1(=O)COc2ccccc2-c2ncncc21	> 100 µM	> 100 µM	> 100 µM	> 100 µM	> 100 µM	> 100 µM	> 100 µM	> 100 µM	> 100 µM	> 100 µM	> 100 µM	> 100 µM	> 100 µM							
CCOC(=O)[C@H](Cc1ccccc1)NC(=O)c1nc[nH]c1[N+](=O)[O-]	> 100 µM	> 100 µM		> 100 µM	> 100 µM	> 100 µM	> 100 µM	> 100 µM	> 100 µM	> 100 µM	> 100 µM	> 100 µM	> 100 µM							
CSc1nc2nc(C)c(C)nc2c(=O)[nH]1	> 100 µM	> 100 µM	> 100 µM	> 100 µM	> 100 µM	> 100 µM	> 100 µM	> 100 µM	> 100 µM	> 100 µM	> 100 µM	> 100 µM	> 100 µM							
CC(C)Cc1ccc(C(C)/C=C2\CCC(CN3CCOCC3)C2=O)cc1 (configuration not stated)	20.7 µM	15.9 µM	22 µM	9.36 µM	32.8 µM	16.7 µM	3.21 µM	27 µM	17.8 µM	25.6 µM	48.4 µM	19.8 µM	21.4 µM	4.2 µM	29.3 µM	25.4 µM	> 100 µM	26.6 µM	19.9 µM	
O=C(CC(=O)C(=O)CC(=O)OCc1ccccc1)OCc1ccccc1	> 100 µM	> 100 µM	> 100 µM	> 100 µM	> 100 µM	> 100 µM	> 100 µM	> 100 µM	> 100 µM	> 100 µM	> 100 µM	> 100 µM	> 100 µM							
CC(=O)OCC1OC(O[C@@H]2C[C@H]3C(C)(C)[C@H](OC(C)=O)CC[C@]3(C)[C@H]3CC[C@@]45C[C@H](O)C[C@H](C)[C@@H]4CC=C5[C@@]32C)C(O)C(O)C1O (some centres not stated)	3.86 µM	15.6 µM	6.23 µM		22 µM	3.7 µM	12.8 µM	15.8 µM	13.6 µM	16.6 µM	3.28 µM	9.33 µM	14.9 µM	11.6 µM	32.9 µM	10.7 µM	18.2 µM	20.6 µM	11 µM	13.7 µM
CCC(C#N)N(Cc1ccc(CN(C(=O)c2ccccc2)C(C#N)CC)cc1)C(=O)c1ccccc1 (configuration not stated)	84.1 µM	> 100 µM	> 100 µM		93.3 µM	43.9 µM	50.2 µM	65 µM	51.1 µM	60.1 µM	31.3 µM	61.8 µM	> 100 µM	85.2 µM	> 100 µM	> 100 µM	> 100 µM	> 100 µM	93.6 µM	67 µM
COc1ccc2cc(-c3ccc(OC)c(OC)c3)c(=O)oc2c1	> 100 µM	> 100 µM	68.3 µM		> 100 µM	> 100 µM	> 100 µM	> 100 µM	> 100 µM	> 100 µM	> 100 µM	> 100 µM	> 100 µM	> 100 µM	> 100 µM	> 100 µM	> 100 µM	> 100 µM	> 100 µM	> 100 µM
CCN(CC)CC(O)CNc1ccc(NCC(O)CCl)c2c1C(=O)c1ccccc1C2=O (configuration not stated)	11.3 µM	19.9 µM	26.6 µM	38.9 µM	29.5 µM	16.5 µM	15.9 µM	21 µM	11.4 µM	29.2 µM	21.6 µM	25.5 µM	25.9 µM	27.8 µM	17.3 µM	19.8 µM	31 µM	29.3 µM	15.3 µM	38.7 µM
COC(=O)C(CCC1(C)OCCO1)C(C)=O (configuration not stated)	> 100 µM	> 100 µM	> 100 µM	> 100 µM	> 100 µM	> 100 µM	> 100 µM	> 100 µM	> 100 µM		> 100 µM	> 100 µM	> 100 µM							
O=C(O)c1cnccc1-c1cc(=O)[nH]n1-c1ccccc1	> 87 µM	> 100 µM	> 100 µM		> 100 µM	> 67.1 µM	> 100 µM	> 100 µM	> 100 µM	> 100 µM	34.3 µM	> 100 µM	> 100 µM	> 100 µM	> 100 µM	> 100 µM	> 100 µM	> 100 µM	> 100 µM	> 100 µM
COC1=C(C)C(=O)C2C(C1=O)C(c1ccc(OC)c(OC)c1)[C@H]2C (some centres not stated)	> 100 µM	> 100 µM	> 100 µM	> 100 µM	> 100 µM	> 100 µM	> 100 µM	> 100 µM	> 100 µM	> 100 µM	> 100 µM	> 100 µM	> 100 µM							
Cc1cc2c(cc1Cl)SC(NN(C)C)=NS2(=O)=O	> 10 µM	> 10 µM	> 10 µM		> 10 µM	> 10 µM	> 10 µM	> 10 µM	> 10 µM	> 10 µM	> 10 µM	> 10 µM	> 10 µM	> 10 µM	> 10 µM	> 10 µM	> 10 µM	> 10 µM	> 10 µM	> 10 µM
C#CCn1c(=O)c(C)cn(/C(=C/C(=O)OCC)C(=O)OCC)c1=O	> 100 µM	25.6 µM	2.01 µM		21.1 µM	4.88 µM	19.4 µM	31.5 µM	13.5 µM	24.8 µM	> 22.7 µM	13 µM	28.6 µM	36.3 µM	10.6 µM	25.7 µM	30 µM	29.5 µM	13.7 µM	20.3 µM
CCOC(=O)C(Cc1ccc(OC(=O)c2ccc(OC)cc2OC)cc1)NC(=O)C(F)(F)F (configuration not stated)	51.1 µM	> 100 µM	36.2 µM		49.6 µM	47.1 µM	93.6 µM	31.6 µM	83.8 µM	30.5 µM	43.9 µM	41.8 µM	> 100 µM	> 100 µM	79.4 µM	48.1 µM	83.5 µM	34.4 µM	47.4 µM	61.6 µM
Cc1ccc(/C=C/C(=O)c2sc(C(N)=S)nc2C)cc1	> 100 µM	> 100 µM	> 100 µM	> 100 µM	> 100 µM	> 100 µM	> 100 µM	> 100 µM	> 100 µM	> 100 µM	> 100 µM	> 100 µM								
